{"source": "patent US4201784A", "about": "“Substituted 2-[2'-(5\"-nitrofuryl-2\")vinyl-and 4'-(5\"-nitrofuryl-2\"-1,3-butadieryl]quinoline-4-carboxylic acid amides and salts thereof” (Institut Organicheskogo Sinteza Akademii Nauk Latviiskoi SSR, priority 1977, dated 1980)", "key": {"[1]": {"test_system": "Ehrlich ascitic tumor", "assay": "Antitumor activity, life prolongation of mice with Ehrlich ascitic tumor", "assay_type": "in vivo", "procedure": "The experiment was conducted as follows. 10^6 cells of Erlich tumuor were injected in common white mice intraperitoneally, the dose being given per each animal. […] Each dose of the preparation was tested in six mice. The control group included 18 mice. Giniquine solution was prepared by dissolving the substance ex tempore in distilled water or in a buffer. The effect of the preparation is shown on charts 1,2,3."}, "[2]": {"test_system": "sarcoma 180", "assay": "Antitumor activity, sarcoma 180", "assay_type": "in vivo, mice", "procedure": "(§1) Apart from the tests on Ehrlich ascitic tumor, giniquine was studied on twelve more inoculated tumors. Seven tumors (melanoma B16, sarcoma AK, large intestine carcinoma acatol-1, sarcoma 180, adenocarcinoma 755, Lewis lung carcinoma and sarcoma 37) were inoculated subcutaneously with 50 mg of tumoral cells per mouse. Four tumors (lymphatic leukemies L 5178, L 5178Y, L 1210 and P-388) were inoculated intraperitoneally with 10^6 cells per mouse. One tumor (La, hemocytoblastosis) was inoculated intraperitoneally by injecting 50 mg of cell suspension of spleen and liver of mice suffering La hemocytoblastosis, per mouse. Giniquine was injected intraperitoneally five times for seven days: 1,2,3,4,7 days or 3,4,5,6,7 days after the implantation of tumor. The rate of deceleration of the tumor growth was established 14 days after the ultimate injection of giniquine; life of test animals was recorded for 60 days."}, "[3]": {"test_system": "adenocarcinoma 755", "assay": "Antitumor activity, adenocarcinoma 755", "assay_type": "in vivo, mice", "conditions": "daily doses of 10 and 17 mg/kg", "procedure": "as §1"}, "[4]": {"test_system": "lymphatic leukemia L 5178", "assay": "Antitumor activity, life prolongation, lymphatic leukemia L 5178", "assay_type": "in vivo, mice", "procedure": "as §1"}, "[5]": {"test_system": "sarcoma AK", "assay": "Antitumor activity, sarcoma AK", "assay_type": "in vivo, mice", "procedure": "as §1"}, "[6]": {"test_system": "melanoma B16", "assay": "Antitumor activity, melanoma B16", "assay_type": "in vivo, mice", "conditions": "17 mg/kg", "procedure": "as §1, with “Giniquine was injected intraperitoneally five times for seven days: 1,2,3,4,7 days or 3,4,5,6,7 days after the implantation of tumor.” left out"}, "[7]": {"test_system": "Lewis lung carcinoma", "assay": "Antitumor / antimetastatic activity, Lewis lung carcinoma", "assay_type": "in vivo, mice", "conditions": "daily doses of 6 and 10 mg/kg", "procedure": "as §1"}, "[8]": {"test_system": "sarcoma 37", "assay": "Antitumor activity, life prolongation, sarcoma 37", "assay_type": "in vivo, mice", "procedure": "as §1"}, "[9]": {"test_system": "Jensen sarcoma", "assay": "Growth deceleration / antitumor activity, Jensen sarcoma", "assay_type": "in vivo", "conditions": "peroral administration", "excerpt": "(§2) An antiblastic effect is caused by products of condensation of aldehydes of the nitrofuran series with (β-hydrazinoethyl)pyridine, 3-hydrazino-4-amino-1,2,4-triazole [Giller S. A., Kalnberga R. Yu., Zidermane A. A. et al. In the book \"Methods of Synthesis and Search for Antitumor Preparations\" (in Russian). Iss. 2. M. 1967. pp. 75-81; Giller S. A. et al. In the book \"Furozolidine\". (in Russian). Riga, 1962. pp. 5-18; Duavarte A. Zh., Zidermane A. A., Kravchenko I. M. et al. In the book \"Proceedings of the 1st All-Union Conference on Chemotherapy of Malignant Tumors.\" Riga. 1968. pp. 216-217; Duavarte A. Zh. et al. In the book \"Antitumor Compounds of the 5-nitrofuran Series.\" (in Russian). Riga, 1972. pp. 17-30)] and 5-aminobenzimidazol [Fuska J., Fuskova A., Jurasek A. \"Neoplasma (Bratisl.)\". 1973. v. 20. pp. 171-179].\n(§3) \"J. Pharm. Soc. Japan.\" 1964, 84(6). pp. 537-543; K. Miura, I. Okada. \"Chem. Pharm. Bull.\" 1965. 13 (15). pp. 525-528]."}, "[10]": {"test_system": "Walker carcinosarcoma", "assay": "Growth deceleration / antitumor activity, Walker carcinosarcoma", "assay_type": "in vivo", "conditions": "peroral administration", "excerpt": "as §2, §3"}, "[11]": {"test_system": "Pliss lymphosarcoma", "assay": "Antitumor activity, Pliss lymphosarcoma", "assay_type": "in vivo", "conditions": "peroral administration", "excerpt": "as §3"}, "[12]": {"conditions": "in vivo; cited from earlier work"}, "[13]": {"test_system": "acatol-1", "assay": "Antitumor activity, large intestine adenocarcinoma acatol-1", "assay_type": "in vivo, mice", "procedure": "as §1"}, "[14]": {"conditions": "in vivo; cited from earlier work", "remark": "listed apart in the source"}, "[15]": {"test_system": "Jensen sarcoma", "conditions": "cited from earlier work"}, "[16]": {"test_system": "Walker carcinosarcoma", "conditions": "cited from earlier work"}, "[17]": {"test_system": "La hemocytoblastosis", "assay": "Antitumor activity, La hemocytoblastosis", "assay_type": "in vivo, mice", "conditions": "10 mg/kg", "procedure": "as §1"}, "[18]": {"test_system": "Ehrlich ascitic tumor", "assay": "Influence of fluorafur on antitumor activity of giniquine, Ehrlich ascitic tumor", "assay_type": "in vivo, mice", "procedure": "In some experiments the influence of the known preparation fluorofur on the antitumoral activity of giniquine was studied. […] The tests were made on Ehrlich ascitic tumor. The preparations were injected 1,2,3,4 and 7 days after the implantation of tumor. Giniquine was injected intraperitoneally and fluorafur-subcutaneously.\nginiquine was injected intraperitoneally, and fluorafursubcutaneously."}}, "data": [{"smiles": "CCN(CC)CCCC(C)NC(=O)c1cc(C=Cc2ccc([N+](=O)[O-])o2)nc2ccccc12", "note": "(stereo not drawn) [2-[2'-(5\"-nitrofuryl-2\")vinyl]quinoline-4-carboxylic acid (α-methyl-δ-diethylaminobutyl)amide chloride]", "values": [{"measurement": "prolongation of life", "setting": "[1]; single intraperitoneal injection, 6 mg/kg, 7 days after inoculation", "value": 85, "unit": "%"}]}, {"smiles": "CCN(CC)CCCC(C)NC(=O)c1cc(C=Cc2ccc([N+](=O)[O-])o2)nc2ccccc12", "note": "(stereo not drawn) [2-[2'-(5\"-nitrofuryl-2\")vinyl]quinoline-4-carboxylic acid (α-methyl-δ-diethylaminobutyl)amide diphosphate]", "values": [{"measurement": "prolongation of life", "setting": "[2]; daily doses of 10 and 17 mg/kg", "value": "up to 20%"}, {"measurement": "prolongation of life", "setting": "[3]", "value": "up to 20%"}, {"measurement": "prolongation of life", "setting": "[1]; 3-5 intraperitoneal injections, daily doses 10 to 28 mg/kg", "value": "140 to 180", "unit": "%"}, {"measurement": "prolongation of life", "setting": "[4]; lymphatic leukemia", "value": "up to 130%"}]}, {"smiles": "CCN(CC)CCCC(C)NC(=O)c1cc(C=Cc2ccc([N+](=O)[O-])o2)nc2ccccc12", "note": "(stereo not drawn) [2-[2'-(5\"-nitrofuryl-2\")vinyl]quinoline-4-carboxylic acid (α-methyl-δ-diethylaminobutyl)amide]", "values": [{"measurement": "prolongation of life", "setting": "[2]; sarcoma 180", "value": "up to 20%"}, {"measurement": "prolongation of life", "setting": "[1]; three injections, 10 and 17 mg/kg", "value": "70 to 130", "unit": "%"}, {"measurement": "prolongation of life", "setting": "[5]; sarcoma AK", "value": "up to 20%"}, {"measurement": "prolongation of life", "setting": "[4]; 6 to 28 mg/kg", "value": "30 to 140", "unit": "%"}, {"measurement": "prolongation of life", "setting": "[6]", "value": "up to 25%"}, {"measurement": "prolongation of life", "setting": "[7]", "value": 30, "unit": "%"}]}, {"smiles": "O=C(NCCCO)c1cc(C=Cc2ccc([N+](=O)[O-])o2)nc2ccccc12", "note": "[2-[2'-(5\"-nitrofuryl-2\")vinyl]quinoline-4-carboxylic acid (γ-hydroxypropyl)amide]", "values": [{"measurement": "prolongation of life", "setting": "[8]; 12.5 mg/kg", "value": 90, "unit": "%"}, {"measurement": "prolongation of life", "setting": "[1]; 7.5 mg/kg to 12.5 mg/kg, five injections", "value": "up to 120%"}, {"measurement": "prolongation of life", "setting": "[5]; 2.8 mg/kg", "value": "up to 20%"}, {"measurement": "prolongation of life", "setting": "[4]; lymphatic leukemia L 5178", "value": "up to 40%"}]}, {"smiles": "NC(=O)c1cc(C=Cc2ccc([N+](=O)[O-])o2)nc2ccccc12", "note": "[2-[2'-(5\"-nitrofuryl-2\")vinyl]quinoline-4-carboxylic acid amide]", "values": [{"measurement": "antitumor activity", "setting": "[9]", "value": "not found any antitumor activity"}, {"measurement": "antitumor activity", "setting": "[10]", "value": "not found any antitumor activity"}, {"measurement": "antitumor activity", "setting": "[11]", "value": "not found any antitumor activity"}, {"measurement": "antitumoral activity", "setting": "[12]", "value": "a very narrow range of antitumoral activity"}]}, {"smiles": "CCN(CC)CCCC(C)NC(=O)c1cc(C=Cc2ccc([N+](=O)[O-])o2)nc2ccccc12", "note": "(stereo not drawn) [2-[2'-(5\"-nitrofuryl-2\")vinylquinoline]-4-carboxylic acid (α-methyl-δ-diethylaminobutyl)amide dibromide]", "values": [{"measurement": "prolongation of life", "setting": "[1]; single intraperitoneal injection, 28 mg/kg, 7 days after inoculation", "value": 85, "unit": "%"}]}, {"smiles": "CCN(CC)CCCC(C)NC(=O)c1cc(C=CC=Cc2ccc([N+](=O)[O-])o2)nc2ccccc12", "note": "(stereo not drawn) [2-[4'-(5\"-nitrofuryl-2\")-1,3-butadienyl]quinoline-4-carboxylic acid (α-methyl-δ-diethylaminobutyl)amide diphosphate]", "values": [{"measurement": "antitumor effect / sensitivity (in words)", "setting": "[2]; sarcoma 180", "value": "a certain sensitivity"}, {"measurement": "prolongation of life", "setting": "[8]; daily dose of 17 mg/kg, intraperitoneal", "value": "up to 120%"}, {"measurement": "prolongation of life", "setting": "[1]; doses of 3.6-10 mg/kg", "value": "60 to 160", "unit": "%"}, {"measurement": "antiblastic activity / sensitivity (in words)", "setting": "[4]; lymphatic leukemia L 5178", "value": "a certain sensitivity"}, {"measurement": "antitumor effect / sensitivity (in words)", "setting": "[13]; acatol-1", "value": "a certain sensitivity"}]}, {"smiles": "O=Cc1ccc([N+](=O)[O-])o1", "note": "[5-nitrofurfural]", "values": [{"measurement": "acute toxicity compared with 5-nitrofuran", "setting": "[14]", "value": "a higher acute toxicity"}, {"measurement": "activity compared with 5-nitrofuran", "setting": "[15]", "value": "about the same activity"}, {"measurement": "activity compared with 5-nitrofuran", "setting": "[16]", "value": "about the same activity"}]}, {"smiles": "O=[N+]([O-])c1ccco1", "note": "[Example 5-nitrofuran, 5-nitrofuran]", "values": [{"measurement": "deceleration of growth", "setting": "[15]", "value": "39-51%"}, {"measurement": "deceleration of growth", "setting": "[16]", "value": "39-51%"}]}, {"smiles": "O=C(NCCCO)c1cc(C=CC=Cc2ccc([N+](=O)[O-])o2)nc2ccccc12", "note": "[[4'-(5\"-nitrofuryl-2\")-1,3-butadienyl]quinoline-4-carboxylic acid (γ-hydroxypropyl)amide]", "values": [{"measurement": "prolongation of life", "setting": "[1]; 17 mg/kg", "value": "up to 80%"}, {"measurement": "prolongation of life", "setting": "[17]", "value": "about 20%"}, {"measurement": "prolongation of life", "setting": "[4]; 1 mg/kg", "value": "up to 40%"}, {"measurement": "prolongation of life", "setting": "[13]; 10 mg/kg", "value": "about 20%"}]}, {"smiles": "O=P1(N(CCCl)CCCl)NCCCO1", "note": "(stereo not shown) [cyclophosphane, reference compound]", "values": [{"measurement": "increase in mice life", "setting": "[1]; Ehrlich ascitic tumor", "value": 0, "unit": "%"}]}, {"smiles": "O=c1[nH]c(=O)n(C2CCCO2)cc1F", "note": "(stereo not shown) [fluorafur, reference compound]", "values": [{"measurement": "Life prolongation", "setting": "[18]; Test No. 1, fluorafur 39.0 mg/kg daily", "value": 35, "unit": "%"}, {"measurement": "Life prolongation", "setting": "[18]; Test No. 1, fluorafur 65.0 mg/kg daily", "value": 37, "unit": "%"}, {"measurement": "Life prolongation", "setting": "[18]; Test No. 1, fluorafur 108.0 mg/kg daily", "value": 40, "unit": "%"}, {"measurement": "Life prolongation", "setting": "[18]; Test No. 1, fluorafur 180.0 mg/kg daily", "value": 52, "unit": "%"}, {"measurement": "Life prolongation", "setting": "[18]; Test No. 2, fluorafur 39.0 mg/kg daily", "value": 18, "unit": "%"}, {"measurement": "Life prolongation", "setting": "[18]; Test No. 2, fluorafur 65.0 mg/kg daily", "value": -5, "unit": "%"}, {"measurement": "Life prolongation", "setting": "[18]; Test No. 2, fluorafur 108.0 mg/kg daily", "value": -17, "unit": "%"}, {"measurement": "Life prolongation", "setting": "[18]; Test No. 2, fluorafur 180.0 mg/kg daily", "value": -33, "unit": "%"}]}]}
